From article PMC6571560, “Aldose Reductase, Protein Glycation Inhibitory and Antioxidant of Peruvian Medicinal Plants: The Case of Tanacetum parthenium L. and Its Constituents” (Molecules, 2019)

Columns and labels:
[1] = tested on: advanced glycation end products (AGEs) formation; experiment: Bovine serum albumin-methylglyoxal assay for AGEs formation; type: biochemical; details: for IC50: table head prints no unit, μM
Experimental: BSA (50 mg/mL) was incubated with methylglyoxal (100 mM) in sodium phosphate buffer (0.1 M, pH 7.4) in the presence of various concentrations of the compounds (including a control) at 37 °C for 24 h. Then, the fluorescence intensity was measured at an excitation wavelength of 355 nm and an emission wavelength of 460 nm with a luminescence spectrometer (LS50B, Perkin–Elmer Ltd., Buckinghamshire, UK). […] All reagents and samples were sterilized by filtration through […] membrane filters.

[2] = biological target: T1, rat lens aldose reductase (RLAR) (Rattus norvegicus, UniProt P07943); experiment: Rat lens aldose reductase (RLAR) inhibition, NADPH absorbance decrease at 340 nm; type: biochemical; details: for IC50: mean ± SEM, three independent experiments in duplicate
T1 construct: The supernatant was collected and used as the RLAR; from tissue; host or cells: lenses of Sprague-Dawley rats (homogenate supernatant)
Experimental: Crude RLAR was prepared as follows: lenses were removed from Sprague-Dawley rats (Weighing 250–280 g) and frozen at −70 °C until use. Non-cataractous transparent lenses were pooled, and a homogenate was prepared in 0.1 M phosphate-buffered saline (pH 6.2). The RLAR homogenate was then centrifuged at 10,000× gfor 20 min at 4 °C in a refrigerated centrifuge. The supernatant was collected and used as the RLAR [35]. This experiment was approved by the University of Hallym Animal Care and Use Committee (Registration Number: Hallym R2016-60). All of the procedures were conducted in accordance with the ‘Guide for Care and Use of Laboratory Animals’, published by the National Institutes of Health.
A total of 531 μL of 0.1 M potassium buffer (pH 7.0), 90 μL of NADPH solution (1.6 mM in potassium buffer), 90 μL of RLAR homogenate (6.5 U/mg), 90 μL of ammonium sulfate solution (4 M in potassium buffer), and 90 μL of DL-glyceraldehyde (25 mM in potassium buffer) were mixed with 9 μL of different concentrations of samples (1–0.1 mg/mL in dimethylsulfoxide (DMSO), Less than 1% in total mixture) in a cuvette, and the activity of RLAR was assessed spectrophotometrically by measuring the decrease in NADPH absorbance at 340 nm for 3 min using a spectrophotometer (SECOMAM, Ales Cedex, France).

[3] = biological target: T2, human recombinant aldose reductase (HRAR) (Homo sapiens, UniProt P15121); experiment: Human recombinant aldose reductase ultrafiltration HPLC assay; type: binding; details: peak in TP extract (0.1 mg/mL) incubated with 3.9 μM HRAR
T2 construct: purchased Wako Pure Chemical Industries (Osaka, Japan)
Experimental: The inhibitory compounds of HRAR from TP were profiled by an AR ultrafiltration assay. Specifically, TP (at a final concentration of 0.1 mg/mL) was incubated with 0.6 M ammonium sulfate and 3.9 μM HRAR in a total volume of 300 μL at 37 °C for 30 min. Then, the incubated mixture was filtered by using a Microcon YM-10 centrifugal filter unit by centrifugation at 5167× g for 30 min at room temperature. The filtrate was subsequently analyzed by using the methods mentioned in the HPLC analysis section. A sample incubated without HRAR was used as a control. The relative binding affinity of the inhibitors from TP toward HRAR was defined as the “binding degree” (BD), which can be calculated as follows: BD (%) = (Aa − Ab)/Aa × 100, in which Aa and Ab are the peak areas of a compound without and with HRAR in the HPLC chromatograms, respectively.

DPPH-HPLC assay = details: peak in TP extract after reaction with DPPH, HPLC 254 nm
Experimental: The antioxidant compounds from TP were profiled with a DPPH-HPLC assay. TP (90 µL; 10.0 mg/mL) was mixed with 540 µL of DPPH solution (0.32 mM), and the mixed solution was then incubated at 37 °C for 20 min in a dark room. The solution was then filtered through a 0.45 µm membrane filter and then subjected to HPLC analysis. The HPLC conditions were the same as those described in the HPLC analysis section.

[4] = tested on: sorbitol accumulation in rat lens; experiment: Lens culture and sorbitol accumulation in rat lens; type: cell-based; details: compound 5 μg/mL, mean ± SD (n = 3); for Sorbitol Content (mg)/lens Wet Weight (g): rat lens cultured 6 d in 30 mM glucose; for inhibition at 5 µg/mL: rat lens cultured in 30 mM glucose
Experimental: Lenses isolated from 10-week-old Sprague-Dawley rats were cultured for 6 d in TC-199 medium that contained 15% fetal bovine serum, 100 units/mL penicillin, and 0.1 mg/mL streptomycin, under sterile conditions and an atmosphere of 5% CO2 and 95% air at 37 °C. The lenses were divided into three groups and cultured in medium containing 30 mM glucose and active compounds. Each lens was placed in a well containing 2.0 mL of medium. Sorbitol was determined by HPLC after derivatization by reaction with benzoic acid to a form of a fluorescent compound [37].

[5] = DPPH radical scavenging capacity
Experimental: The DPPH radical scavenging capacity assay method of Yin et al. was used. DPPH (0.32 mM) was diluted with MeOH, and this solution (180 µL) was mixed with 30 µL of the sample at each concentration. After 20 min of incubation in a darkroom, the absorbance at 570 nm was recorded on a microplate reader (EL800 Universal Microplate reader, Bio-Tek Instruments, Winooski, VT, USA). DPPH radical scavenging activity was expressed as the percentage inhibition (%) of DPPH in the aforementioned assay system and was calculated as (1 – B/A) × 100, in which A and B are the activities of DPPH without and with the test material, respectively.

| SMILES | IC50 [2] | HRAR binding degree (%) [3] | IC50 [1] | AGEs Inhibition (%) ([1]; 20 μg/mL) | DPPH PAR (%), peak area reduction (DPPH-HPLC assay) | Sorbitol Content (mg)/lens Wet Weight (g) [4] | inhibition at 5 µg/mL [4] | also measured |
| --- | --- | --- | --- | --- | --- | --- | --- | --- |
| N=C(N)NN [Aminoguanidine, aminoguanidine, reference compound] | – | – | – | 20.75% | – | – | – | AGEs Inhibition (%) ([1]; 100 μg/mL): 39.94%; AGEs Inhibition (%) ([1]; 200 μg/mL): 75.32%; AGEs IC50 ([1]; mean ± SEM): 121.96 ± 5.10 µg/mL |
| O=c1cc(-c2ccc(O)c(O)c2)oc2cc(O[C@@H]3O[C@H](CO)[C@@H](O)[C@H](O)[C@H]3O)cc(O)c12 [Compound 3, luteolin-7-O-glucoside] | 1.11 to 3.2 µM | 26.58% | – | – | 16.85% | 0.07 ± 0.01 mg/g | 95.2 ± 5.97% | AGEs inhibition potency relative to aminoguanidine (times higher) ([1]; ratio of IC50 values): 32.23 times |
| O=c1c(O)c(-c2ccc(O)cc2)oc2cc(O)cc(O)c12 [Compound 6, kaempferol] | 1.11 to 3.2 µM | 24.29% | > 55 µM | – | 13.97% | 0.03 ± 0.00 mg/g | 98 ± 6.31% | – |
| O=C1O[C@H]([C@@H](O)CO)C(O)=C1O [L-ascorbic acid] | – | – | – | – | – | – | – | DPPH Inhibition (%) ([5]; 3 μg/mL): 33.71%; DPPH Inhibition (%) ([5]; 7.5 μg/mL): 58.34%; DPPH Inhibition (%) ([5]; 15 μg/mL): 97.23%; DPPH IC50 ([5]; mean ± SEM): 6.02 ± 0.37 µg/mL |
| O=c1c(O)c(-c2ccc(O)c(O)c2)oc2cc(O)cc(O)c12 [Quercetin, quercetin, reference compound] | – | – | – | – | – | 0.21 ± 0.02 mg/g | 85.7 ± 5.71% | inhibition at 0.5 µg/mL ([2]; 0.5 μg/mL): 23.6%; inhibition at 1 µg/mL ([2]; 1 μg/mL): 44.8%; inhibition at 10 µg/mL ([2]; 10 μg/mL): 81.3% |

Now from value to compound, other results behind:

| IC50 [2] | HRAR binding degree (%) [3] | IC50 [1] | SMILES | AGEs Inhibition (%) ([1]; 20 μg/mL) | DPPH PAR (%), peak area reduction (DPPH-HPLC assay) | Sorbitol Content (mg)/lens Wet Weight (g) [4] | inhibition at 5 µg/mL [4] | also measured |
| --- | --- | --- | --- | --- | --- | --- | --- | --- |
| 1.11 to 3.2 µM | 27.08% | – | COc1cc(/C=C/C(=O)O)ccc1O [Compound 1, ferulic acid] | – | 23.53% | 0.29 ± 0.03 mg/g | 80.3 ± 2.38% | – |
| 1.11 to 3.2 µM | 15.00% | > 55 µM | O=c1cc(-c2ccc(O)cc2)oc2cc(O)cc(O)c12 [Compound 2, apigenin] | 8.14% | 11.28% | 0.19 ± 0.06 mg/g | 87.1 ± 2.37% | – |
| – | 38.02% | – | O=c1cc(-c2ccc(O)c(O)c2)oc2cc(O)cc(O)c12 [Compound 4, luteolin] | – | 29.36% | 0.12 ± 0.02 mg/g | 91.8 ± 5.23% | – |
| 1.11 to 3.2 µM | 25.54% | > 55 µM | COc1cc2oc(-c3ccc(O)c(O)c3)c(OC)c(=O)c2c(O)c1OC [Compound 5, chrysosplenol] | 5.38% | 7.19% | 0.26 ± 0.03 mg/g | 82.3 ± 2.39% | IC50 ([5]; mean ± SEM, listed as Chrysosplenol (5)): > 250 µM |
| > 28 µM | 0% | > 55 µM | COc1ccc(-c2oc3cc(O)c(OC)c(O)c3c(=O)c2OC)cc1 [Compound 7, santin] | 13.15% | 0% | – | – | IC50 ([5]; mean ± SEM): > 208 µM |
